Measurements as given in article PMC11784221, “Platelet factor 4-derived C15 peptide broadly inhibits enteroviruses by disrupting viral attachment” (Journal of Virology, 2025).
Where no end group is shown, it is not given here.

Tests used:
[1] = C15 alone in neonatal mice without CA6 infection (toxicity); assay type: in vivo, ICR mice
Experimental: To investigate the anti-viral efficacy of C15 against CA6 in vivo, we established a lethal infection model using 1-day-old ICR mice. The mice were infected with CA6 at a concentration of 10^7 TCID50 and then treated with two different concentrations of C15 (1 and 5 mg/kg). The mice were monitored over a period of 7 days to assess various indicators (Fig. 7A). The mice in the control group, which received Dulbecco’s Modified Eagle Medium (DMEM) alone, began to succumb to the infection on day 4, with all mice dying by day 6. On day 6, the average clinical score of the mice in the control group was 5. […] Treatment with 1 mg/kg C15 improved survival rates by 60%, while 5 mg/kg C15 provided complete protection, achieving a 100% survival rate (Fig. 7D).
ICR pregnant specific pathogen-free mice were purchased from Beijing Vital River Laboratory. Pregnant mice gave birth approximately 5 days after arrival at the laboratory. One day-old ICR neonatal mice were used to establish the CA6 infection mouse model. The CA6 virus, at a concentration of 10^7 TCID50/mL, was mixed with varying concentrations of C15 (1 and 5 mg/kg) and intracranially injected into the 1 day-old neonatal mice (10 µL per mouse). Five experimental groups were designed, and observations of various indicators were conducted over the subsequent 7 days, as well as samples collected for analysis. […]

[2] = tested on: CA6; settings: read-out: EC50 for CA6; RD cells, 48 h, intracellular VP1 mRNA by RT-qPCR vs GAPDH, three independent experiments, four-parameter fit
[3] = tested on: EVD68; settings: read-out: EC50 for EVD68; RD cells, 48 h, intracellular VP1 mRNA by RT-qPCR vs GAPDH, three independent experiments, four-parameter fit
[4] = tested on: RD cells; settings: 48 h treatment, CCK-8, absorbance 450 nm, n = 3
[5] = tested on: CA16; settings: read-out: EC50 for CA16; RD cells, 48 h, intracellular VP1 mRNA by RT-qPCR vs GAPDH, three independent experiments, four-parameter fit
[6] = tested on: EV71; settings: read-out: EC50 for EV71; RD cells, 48 h, intracellular VP1 mRNA by RT-qPCR vs GAPDH, three independent experiments, four-parameter fit
[7] = tested on: EVD68; assay: Purified PF4-His added to cells infected with EVD68; assay type: cell-based, enterovirus D68; settings: increasing doses of purified PF4-His, 48 h, Western blot, RT-qPCR, TCID50
Experimental: (§1) (A and B) HEK-293T cells transfected with cDNA-PF4-Myc or the VR1012 expression vector serving as a control. […] (C and D) Viral loads in the supernatant were evaluated by measuring VP1 gene mRNA levels using reverse transcription quantitative PCR (RT-qPCR). (E and H) PF4-His proteins expressed in Escherichia coli were added to the cell supernatant at the indicated concentration, and the cells were simultaneously infected with CA6 or EVD68. Cell lysates and supernatants (concentrated 100-fold) were collected at 48 h. Western blot was performed to detect the viral VP1 protein in the cells and supernatant, with tubulin serving as a loading control. (F and I) Intracellular mRNA levels of VP1 were determined by RT-qPCR, using GAPDH as a control. (G and J) 50% tissue culture infective dose (TCID50) assays were performed using supernatants collected from infected rhabdomyosarcoma cells at 48 h, containing various concentrations of PF4-His.
(§2) PF4 is a secreted protein. To further assess its anti-viral potential, PF4 proteins were expressed and purified from Escherichia coli. […]
(§3) The cDNA of PF4-His with His tag at the N-terminus was synthesized and inserted into PEXs-DH by Comate Bioscience Company and expressed in E. coli BL21-derived cells. […] The […] of the resulting proteins was determined through BCA Protein Assay Kits (Epizyme, #ZJ102L) analysis.

[8] = tested on: CA6; assay: Purified PF4-His added to cells infected with CA6; assay type: cell-based, coxsackievirus A6; settings: increasing doses of purified PF4-His, 48 h, Western blot, RT-qPCR, TCID50
Experimental: as §1, §2, §3

[9] = molecular target: Coxsackievirus A6 (CA6) virion, strain changchun046/CHN/2013 (coxsackievirus A6)
[10] = molecular target: Enterovirus D68 (EVD68) virion, strain US/KY/14-18953 (enterovirus D68)

In the case of QAPLYKKIIKKLLES [C15], the “Toxicity in neonatal mice (clinical scores, body weight, survival rates versus DMEM control)” value ([1]; 5 mg/kg C15 without CA6 infection, intracranial, 1-day-old ICR mice) is reported as “no toxicity”, the “VITT-related symptoms (weight loss, nosebleeds, gum bleeding, gastrointestinal bleeding)” value ([1]; injection of C15 alone in mice) is reported as “did not result in VITT-related symptoms” and the EC50 [2] is reported as 3.12 nM. It also gave an EC50 [3] of 5.41 nM, a 50% cytotoxic concentration [4] greater than 100 µM and an EC50 [5] of 10 nM. It also gave an EC50 [6] of 5.36 nM.

B1: PF4-His: Platelet factor 4 with His tag at the N-terminus, expressed in E. coli and purified (protein)
chain: EAEEDGDLQCLCVKTTSQVRPRHITSLEVIKAGPHCPTAQLIATLKNGRKICLDLQAPLYKKIIKKLLES
modifications: left off: Myc, N-terminal, kept
notes: Platelet factor 4 with His tag at the N-terminus, expressed in E. coli and purified
For B1, the “VP1 protein and mRNA levels of EVD68 and viral titer in supernatant” value [7] was “gradually decreased” and the “VP1 protein and mRNA levels of CA6 and viral titer in supernatant” value [8] was “gradually decreased”.

In the case of QAPLYKKIIKKLLES [C15 peptide (C-terminal 15 amino acids of PF4)], the EC50 of inhibition of CA6 replication in RD cells (intracellular VP1 mRNA by RT-qPCR, 48 h) [9] is reported as 3.12 nM and the EC50 of inhibition of EVD68 replication in RD cells (intracellular VP1 mRNA by RT-qPCR, 48 h) [10] is reported as 5.41 nM.
